Patent US9133183B2, “Imidazolidinones and analogs exhibiting anti-cancer and anti-proliferative activities” (Deciphera Pharmaceuticals, LLC, priority 2013, dated 2015)
Read-outs that look alike come from different tables or passages of the source.

How the values were obtained:
[1] = biological target: unphosphorylated c-KIT kinase (uKIT, Seq. ID no. 2) (Homo sapiens (Human), UniProt P10721); test: uKit kinase assay (coupled pyruvate kinase/lactate dehydrogenase); format: biochemical; details: enzymatic assay, ATP 2000 μM
Procedure, shortened: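 Unphosphorylated KIT (12 nM, N-terminal GST fusion) was run with 1 mg/mL polyE4Y, 2000 μM ATP and 10 mM MgCl2 in Tris buffer (pH 7.5, 0.2% octyl-glucoside, 1% DMSO). ADP was coupled via PK/LDH, with NADH loss tracked at A340 for 4 h at 30 °C. Rates at 3–4 h gave % inhibition and IC50.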

[2] = biological target: unphosphorylated c-FMS kinase (uFMS, Seq. ID no. 1) (Homo sapiens (Human), UniProt P07333); test: uFMS kinase assay (ADP production coupled to pyruvate kinase/lactate dehydrogenase); format: biochemical
Procedure, shortened: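 Unphosphorylated FMS (10 nM) with polyE4Y 1 mg/mL and 500 μM ATP in 90 mM Tris pH 7.5, 10 mM MgCl2, 0.2% octyl-glucoside, 1% DMSO. ADP formation was coupled via pyruvate kinase/LDH to NADH oxidation, followed at A340 for 4 h at 30° C.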

[3] = biological target: c-FMS kinase in THP-1 cells (Homo sapiens (Human), UniProt P07333); test: Phospho-FMS ELISA assay in THP-1 cells; format: cell-based; details: 4 h compound, M-CSF stimulation 5 min; read-out: pFMS inhibition in THP-1 cells
Protocol: THP-1 cells (catalog #TIB-202) were obtained from the ATCC. Briefly, cells were grown in RPMI 1640 supplemented with 10% characterized fetal bovine serum, 1% sodium pyruvate, 1% Penicillin-Streptomycin-Glutamine (PSG) and 55 uM 2-mercaptoethanol (Invitrogen, Carlsbad, Calif.) at 37 degrees Celsius, 5% CO2, 95% humidity. Cells were allowed to expand until reaching 70-95% confluency at which point they were subcultured or harvested for assay use.
A serial dilution of test compound was diluted 1:100 in assay medium (RPMI 1640 supplemented with 10% characterized fetal bovine serum) in a 96 well black clear bottom plate (Corning, Corning, N.Y.). In a separate 96 well black clear bottom plate, one hundred and fifty thousand THP-1 cells were added per well in 100 μL in assay medium. Fifty microliters of diluted compound was then added to the cells. Plates were incubated for 4 hours at 37 degrees Celsius, 5% CO2, 95% humidity. At the end of the incubation period, cells were stimulated with 50 μL of a 100 nM solution of recombinant human M-CSF (catalog #216-MC, R & D Systems, Minneapolis, Minn.) in assay medium and the plate was incubated for 5 minutes at 37 degrees Celsius, 5% CO2, 95% humidity. Lysates were prepared and used to perform the phospho-FMS ELISA as described by the manufacturer (catalog #DYC3268, R & D Systems, Minneapolis, Minn.). GraphPad Prism was used to calculate IC50 values obtained from data generated from the ELISA assay.

M-NFS-60 cells = test: M-NFS-60 cell proliferation assay (resazurin); format: cell-based; details: 67 h incubation
Procedure, shortened: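 Cells kept in medium containing 20 ng/mL mouse recombinant M-CSF. Fluorescence was read at ex 540/em 600 nm, and IC50 was fitted from percent inhibition across a range of inhibitor concentrations.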

osteoclast precursors = test: Osteoclast tartrate-resistant acid phosphatase assay; format: cell-based; details: Osteoclast, 7-14 days, RANKL and M-CSF
[4] = enzymatic assay, ATP 500 μM, read-out: uFMS

Sequence of unphosphorylated c-FMS kinase (uFMS, Seq. ID no. 1) (P07333 538-972): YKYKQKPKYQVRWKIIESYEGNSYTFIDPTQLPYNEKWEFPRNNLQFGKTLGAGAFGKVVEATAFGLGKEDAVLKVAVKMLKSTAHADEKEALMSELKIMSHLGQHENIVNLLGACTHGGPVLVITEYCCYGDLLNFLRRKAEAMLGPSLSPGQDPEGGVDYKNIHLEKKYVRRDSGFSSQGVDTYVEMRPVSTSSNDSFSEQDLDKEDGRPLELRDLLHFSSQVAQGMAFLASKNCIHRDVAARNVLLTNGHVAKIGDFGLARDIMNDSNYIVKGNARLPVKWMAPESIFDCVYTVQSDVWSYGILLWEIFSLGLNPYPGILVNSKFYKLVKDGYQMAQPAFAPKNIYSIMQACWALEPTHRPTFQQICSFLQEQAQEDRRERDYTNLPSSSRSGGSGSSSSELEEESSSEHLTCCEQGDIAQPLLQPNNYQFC
Sequence of unphosphorylated c-KIT kinase (uKIT, Seq. ID no. 2) (P10721 other isoform, or with tags, fused parts or gaps): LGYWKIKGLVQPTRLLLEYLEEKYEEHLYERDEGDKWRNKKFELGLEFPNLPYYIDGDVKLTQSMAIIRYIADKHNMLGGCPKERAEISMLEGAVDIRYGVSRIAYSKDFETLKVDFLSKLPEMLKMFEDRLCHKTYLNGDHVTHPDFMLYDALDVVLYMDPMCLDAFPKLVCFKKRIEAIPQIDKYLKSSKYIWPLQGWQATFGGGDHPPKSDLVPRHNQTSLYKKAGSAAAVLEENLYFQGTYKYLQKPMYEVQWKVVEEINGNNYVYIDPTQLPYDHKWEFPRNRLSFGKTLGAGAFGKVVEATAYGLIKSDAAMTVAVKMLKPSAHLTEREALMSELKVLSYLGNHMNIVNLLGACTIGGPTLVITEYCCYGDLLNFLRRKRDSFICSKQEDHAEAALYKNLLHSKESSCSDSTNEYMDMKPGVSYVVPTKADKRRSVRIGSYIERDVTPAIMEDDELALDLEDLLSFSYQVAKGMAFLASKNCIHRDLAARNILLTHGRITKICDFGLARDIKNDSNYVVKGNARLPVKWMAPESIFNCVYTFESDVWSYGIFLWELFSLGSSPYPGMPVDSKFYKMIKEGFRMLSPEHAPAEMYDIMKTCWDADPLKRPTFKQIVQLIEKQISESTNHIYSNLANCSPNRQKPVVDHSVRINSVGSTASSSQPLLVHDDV
Sequence of c-FMS kinase in THP-1 cells (P07333 20-972): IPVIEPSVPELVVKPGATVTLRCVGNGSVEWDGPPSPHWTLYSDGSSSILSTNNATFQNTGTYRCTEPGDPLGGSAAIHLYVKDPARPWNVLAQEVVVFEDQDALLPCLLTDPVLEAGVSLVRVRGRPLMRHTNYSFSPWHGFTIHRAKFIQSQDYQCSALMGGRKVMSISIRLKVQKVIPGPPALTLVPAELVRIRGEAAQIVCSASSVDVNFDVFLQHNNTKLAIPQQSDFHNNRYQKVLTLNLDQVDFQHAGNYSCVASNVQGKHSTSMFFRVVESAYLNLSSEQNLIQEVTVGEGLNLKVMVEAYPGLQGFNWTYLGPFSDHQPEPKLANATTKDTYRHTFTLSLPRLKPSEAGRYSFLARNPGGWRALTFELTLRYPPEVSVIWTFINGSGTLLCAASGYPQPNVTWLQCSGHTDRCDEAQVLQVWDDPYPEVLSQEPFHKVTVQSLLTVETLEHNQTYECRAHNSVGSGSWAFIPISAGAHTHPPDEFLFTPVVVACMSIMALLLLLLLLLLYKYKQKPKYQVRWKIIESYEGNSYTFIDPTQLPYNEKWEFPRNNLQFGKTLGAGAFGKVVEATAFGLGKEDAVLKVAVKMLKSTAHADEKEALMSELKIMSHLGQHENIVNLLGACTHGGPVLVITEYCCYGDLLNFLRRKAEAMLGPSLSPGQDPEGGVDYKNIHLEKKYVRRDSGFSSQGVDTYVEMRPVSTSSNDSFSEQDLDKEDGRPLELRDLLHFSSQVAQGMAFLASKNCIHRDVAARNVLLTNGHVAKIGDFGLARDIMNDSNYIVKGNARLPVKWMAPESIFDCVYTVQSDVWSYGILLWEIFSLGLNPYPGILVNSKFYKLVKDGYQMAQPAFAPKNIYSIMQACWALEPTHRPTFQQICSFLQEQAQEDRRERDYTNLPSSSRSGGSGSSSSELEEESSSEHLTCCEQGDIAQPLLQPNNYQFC

Compound | IC50 [1] [nM] | IC50 [2, 4] [nM] | IC50 [3] [nM] | IC50 (osteoclast precursors) [nM] | IC50 (M-NFS-60 cells) [nM] | IC50 ([2]; Table 4, read-out: c-FMS IC50) [nM]
Cn1cc(-c2cc(Oc3ccc(NC(=O)N4CCN(C5CCOCC5)C4=O)nc3)ccn2)cn1 [Example 1, N-(5-((2-(1-methyl-1H-pyrazol-4-yl)pyridin-4-yl)oxy)pyridin-2-yl)-2-oxo-3-(tetrahydro-2H-pyran-4-yl)imidazolidine-1-carboxamide] | 10 to 100 | < 10 | 10 to 100 | 10 to 100 | 10 to 100 | 6
Cc1nc(NC(=O)N2CCN(C3CCOCC3)C2=O)ccc1Oc1ccnc(-c2cnn(C)c2)c1 [Example 3, N-(6-methyl-5-((2-(1-methyl-1H-pyrazol-4-yl)pyridin-4-yl)oxy)pyridin-2-yl)-2-oxo-3-(tetrahydro-2H-pyran-4-yl)imidazolidine-1-carboxamide] | 100 to 1000 | < 10 | 10 to 100 | 10 to 100 | 10 to 100 | –
COCCN1CCN(C(=O)Nc2ccc(Oc3ccnc(-c4cnn(C)c4)c3)cn2)C1=O [Example 10, 3-(2-methoxyethyl)-N-(5-((2-(1-methyl-11H-pyrazol-4-yl)pyridin-4-yl)oxy)pyridin-2-yl)-2-oxoimidazolidine-1-carboxamide] | 100 to 1000 | 10 to 100 | < 10 | 10 to 100 | 10 to 100 | –
COCCN1CCN(C(=O)Nc2ccc(Oc3ccnc(-c4cnn(C)c4)c3)c(C)n2)C1=O [Example 18, 3-(2-methoxyethyl)-N-(6-methyl-5-((2-(1-methyl-1H-pyrazol-4-yl)pyridin-4-yl)oxy)pyridin-2-yl)-2-oxoimidazolidine-1-carboxamide] | 100 to 1000 | 10 to 100 | 10 to 100 | 10 to 100 | 100 to 1000 | 20
COCCCN1CCN(C(=O)Nc2ccc(Oc3ccnc(-c4cnn(C)c4)c3)c(C)n2)C1=O [Example 19, 3-(3-methoxypropyl)-N-(6-methyl-5-((2-(1-methyl-1H-pyrazol-4-yl)pyridin-4-yl)oxy)pyridin-2-yl)-2-oxoimidazolidine-1-carboxamide] | 10 to 100 | 10 to 100 | 10 to 100 | 10 to 100 | 10 to 100 | –
Cc1nc(NC(=O)N2CCN(C3COC3)C2=O)ccc1Oc1ccnc(-c2cnn(C)c2)c1 [Example 20, N-(6-methyl-5-((2-(1-methyl-1H-pyrazol-4-yl)pyridin-4-yl)oxy)pyridin-2-yl)-3-(oxetan-3-yl)-2-oxoimidazolidine-1-carboxamide] | 100 to 1000 | 10 to 100 | 10 to 100 | 10 to 100 | 10 to 100 | –
Cn1cc(-c2cc(Oc3ccc(NC(=O)N4CCN(CCOC(F)(F)F)C4=O)nc3)ccn2)cn1 [Example 21, N-(5-((2-(1-methyl-1H-pyrazol-4-yl)pyridin-4-yl)oxy)pyridin-2-yl)-2-oxo-3-(2-(trifluoromethoxy)ethyl)imidazolidine-1-carboxamide] | 10 to 100 | 10 to 100 | 10 to 100 | 10 to 100 | 10 to 100 | –
Cc1nc(NC(=O)N2CCN(C3CCCCC3)C2=O)ccc1Oc1ccnc(-c2cnn(C)c2)c1 [Example 22, 3-cyclohexyl-N-(6-methyl-5-((2-(1-methyl-1H-pyrazol-4-yl)pyridin-4-yl)oxy)pyridin-2-yl)-2-oxoimidazolidine-1-carboxamide] | 10 to 100 | < 10 | 10 to 100 | < 10 | < 10 | –
Cc1nc(NC(=O)N2CCN(C3CCC(F)(F)CC3)C2=O)ccc1Oc1ccnc(-c2cnn(C)c2)c1 [Example 26, 3-(4,4-difluorocyclohexyl)-N-(6-methyl-5-((2-(1-methyl-1H-pyrazol-4-yl)pyridin-4-yl)oxy)pyridin-2-yl)-2-oxoimidazolidine-1-carboxamide] | 10 to 100 | < 10 | 10 to 100 | 10 to 100 | < 10 | –
Cc1nc(NC(=O)N2CCN(C3CCCC3)C2=O)ccc1Oc1ccnc(-c2cnn(C)c2)c1 [Example 29, 3-cyclopentyl-N-(6-methyl-5-((2-(1-methyl-1H-pyrazol-4-yl)pyridin-4-yl)oxy)pyridin-2-yl)-2-oxoimidazolidine-1-carboxamide] | < 10 | < 10 | 10 to 100 | < 10 | < 10 | 2

Now from value to molecule, other results behind:

IC50 [1] [nM] | IC50 [2, 4] [nM] | IC50 [3] [nM] | IC50 (osteoclast precursors) [nM] | Compound | IC50 (M-NFS-60 cells) [nM] | IC50 ([2]; Table 4, read-out: c-FMS IC50) [nM]
10 to 100 | 10 to 100 | 10 to 100 | < 10 | Cn1cc(-c2cc(Oc3ccc(NC(=O)N4CCN(C5CCOC5)C4=O)nc3)ccn2)cn1 (stereo in doubt) [Example 12, (S)—N-(5-((2-(1-methyl-1H-pyrazol-4-yl)pyridin-4-yl)oxy)pyridin-2-yl)-2-oxo-3-(tetrahydrofuran-3-yl)imidazolidine-1-carboxamide] | 10 to 100 | –
10 to 100 | 10 to 100 | < 10 | 10 to 100 | CCn1cc(-c2cc(Oc3ccc(NC(=O)N4CCN(C5CCOCC5)C4=O)nc3)ccn2)cn1 [Example 4, N-(5-((2-(1-ethyl-1H-pyrazol-4-yl)pyridin-4-yl)oxy)pyridin-2-yl)-2-oxo-3-(tetrahydro-2H-pyran-4-yl)imidazolidine-1-carboxamide] | 10 to 100 | –
10 to 100 | 10 to 100 | 10 to 100 | 10 to 100 | Cc1cc(-c2cc(Oc3ccc(NC(=O)N4CCN(C5CCOCC5)C4=O)nc3)ccn2)on1 [Example 7, N-(5-((2-(3-methylisoxazol-5-yl)pyridin-4-yl)oxy)pyridin-2-yl)-2-oxo-3-(tetrahydro-2H-pyran-4-yl)imidazolidine-1-carboxamide] | 10 to 100 | –
10 to 100 | 10 to 100 | 10 to 100 | < 10 | COCCCN1CCN(C(=O)Nc2ccc(Oc3ccnc(-c4cnn(C)c4)c3)cn2)C1=O [Example 11, 3-(3-methoxypropyl)-N-(5-((2-(1-methyl-1H-pyrazol-4-yl)pyridin-4-yl)oxy)pyridin-2-yl)-2-oxoimidazolidine-1-carboxamide] | 10 to 100 | –
< 10 | < 10 | 10 to 100 | < 10 | COC[C@H](C)N1CCN(C(=O)Nc2ccc(Oc3ccnc(-c4cnn(C)c4)c3)cn2)C1=O [Example 16, (S)-3-(1-methoxypropan-2-yl)-N-(5-((2-(1-methyl-11H-pyrazol-4-yl)pyridin-4-yl)oxy)pyridin-2-yl)-2-oxoimidazolidine-1-carboxamide] | 10 to 100 | –
< 10 | < 10 | 10 to 100 | < 10 | Cn1cc(-c2cc(Oc3ccc(NC(=O)N4CCN(C5CCC(F)(F)CC5)C4=O)nc3)ccn2)cn1 [Example 25, 3-(4,4-difluorocyclohexyl)-N-(5-((2-(1-methyl-1H-pyrazol-4-yl)pyridin-4-yl)oxy)pyridin-2-yl)-2-oxoimidazolidine-1-carboxamide] | < 10 | –
< 10 | < 10 | < 10 | 10 to 100 | Cc1nc(NC(=O)N2CCN(C(C)(C)C)C2=O)ccc1Oc1ccnc(-c2cnn(C)c2)c1 [Example 33, 3-(tert-butyl)-N-(6-methyl-5-((2-(1-methyl-1H-pyrazol-4-yl)pyridin-4-yl)oxy)pyridin-2-yl)-2-oxoimidazolidine-1-carboxamide] | 10 to 100 | –
